Here are results for 30 molecules from ChEMBL document CHEMBL1914304 (J Med Chem, 2011).

The structures appear in SMILES notation. Bounds are passed on as bounds.

In data set [1] the test system is HepG2. Briefly: Cytotoxicity against human HepG2 cells after 72 hrs by luminescence assay. It is filed as cell-based. To be noted: hepg2, 72 h.
The subject of data set [2] is Raji. The data set can be described thus: Cytotoxicity against human Raji cells after 72 hrs by luminescence assay. Format: cell-based.
In data set [3] the test system is BJ. The data set can be described thus: Cytotoxicity against human BJ cells after 72 hrs by luminescence assay. It is filed as cell-based.
For data set [4], the system named is HEK293. The data set can be described thus: Cytotoxicity against human HEK293 cells after 72 hrs by luminescence assay. It is filed as cell-based. The conditions noted are these: hek293, 72 h.
Data set [5] is described as follows: Selectivity ratio of EC50 for human HepG2 cells to EC50 for Plasmodium falciparum.

Regarding `Cl.O=C(CCc1ccc(F)cc1)c1cc(F)ccc1OCC(O)CN1CCN(c2ccc([N+](=O)[O-])cc2)CC1` (racemic), the Activity result in data set [1], in data set [2], in data set [3] and in data set [4] was “Non-toxic” in each case. In data set [5], the selectivity ratio was over 10.

As for `Cl.O=C(CCc1ccc(F)cc1)c1cc(F)ccc1OCC(O)CN1CCN(c2ccccc2Cl)CC1` (racemic), the Activity entry in data set [1], in data set [2], in data set [3] and in data set [4] was “Non-toxic” throughout. For the same molecule, in data set [5], the selectivity ratio is over 10.

For `Cl.O=C(CCc1ccccc1)c1cc(F)ccc1OCC(O)CN1CCN(c2ccc(C(F)(F)F)cc2)CC1` (racemic), the Activity entry in data set [1], in data set [2], in data set [3] and in data set [4] was “Non-toxic” in each case. In data set [5], the selectivity ratio was over 10.

As to `Cl.O=C(CCc1ccccc1)c1ccccc1OCC(O)CN1CCN(c2ccc(Cl)cc2)CC1` (racemic), the Activity result in data set [1], in data set [2], in data set [3] and in data set [4] was “Non-toxic” in each case. In data set [5], the selectivity ratio was over 10.

With `Cl.O=C(CCc1ccccc1)c1cc(F)ccc1OCC(O)CC1CCCC1` (racemic), the Activity entry in data set [1], in data set [2], in data set [3] and in data set [4] was “Non-toxic” each time. The selectivity ratio in data set [5] is over 10.

Turning to `Cl.O=C(CCc1ccc(F)cc1)c1cc(F)ccc1OCC(O)CN1CCC(c2ccc(Cl)cc2)CC1` (racemic), the Activity entry in data set [1], in data set [2], in data set [3] and in data set [4] was “Non-toxic” throughout. For the same molecule, in data set [5], the selectivity ratio is over 10.

Take `COc1ccc(N2CCN(CC(O)COc3ccccc3C(=O)CCc3ccc(F)cc3)CC2)cc1.Cl` (racemic): the Activity result in data set [1], in data set [2], in data set [3] and in data set [4] was “Non-toxic” each time. Besides, the selectivity ratio in data set [5] is over 10.

`Cl.O=C(CCc1ccccc1)c1ccccc1OCC(O)CN1CCN(c2ccccc2Cl)CC1` (racemic): the Activity result in data set [1], in data set [2], in data set [3] and in data set [4] was “Non-toxic” each time. For the same molecule, the selectivity ratio in data set [5] was over 10.

As to `Cl.O=C(CCc1ccccc1)c1ccccc1OCC(O)Cn1ccc2ccccc21` (racemic), the Activity entry in data set [1], in data set [2], in data set [3] and in data set [4] was “Non-toxic” each time. Also, the selectivity ratio in data set [5] is over 10.

With `Cl.O=C(CCc1ccc(F)cc1)c1cc(F)ccc1OCC(O)CN1CCOCC1` (racemic), the Activity result in data set [1], in data set [2], in data set [3] and in data set [4] was “Non-toxic” each time. For the same molecule, the selectivity ratio in data set [5] is over 10.

For the molecule `Cl.O=C(CCc1ccc(F)cc1)c1ccccc1OCC(O)CC1CCCC1` (racemic), the Activity entry in data set [1], in data set [2], in data set [3] and in data set [4] was “Non-toxic” each time. Also, the selectivity ratio in data set [5] is over 10.

With `Cl.O=C(CCc1ccccc1)c1ccccc1OCC(O)CC1CCCC1` (racemic), the Activity result in data set [1], in data set [2], in data set [3] and in data set [4] was “Non-toxic” in each case. In addition, the selectivity ratio in data set [5] is over 10.

Take `Cl.O=C(CCc1ccc(F)cc1)c1ccccc1OCC(O)CN1CCN(Cc2ccccc2)CC1` (racemic): the Activity entry in data set [1], in data set [2], in data set [3] and in data set [4] was “Non-toxic” in each case. In addition, the selectivity ratio in data set [5] is over 10.

With `Cl.O=C(CCc1ccccc1)c1cc(F)ccc1OCC(O)CN1CCC(c2ccccc2)CC1` (racemic), the Activity entry in data set [1], in data set [2], in data set [3] and in data set [4] was “Non-toxic” throughout. In addition, in data set [5], the selectivity ratio was over 10.

In the case of `Cc1ccc(N2CCN(CC(O)COc3ccc(F)cc3C(=O)CCc3ccccc3)CC2)cc1.Cl` (racemic), the Activity result in data set [1], in data set [2], in data set [3] and in data set [4] was “Non-toxic” each time. For the same molecule, the selectivity ratio in data set [5] was over 10.

On to `Cl.O=C(CCc1ccccc1)c1cc(F)ccc1OCC(O)Cn1ccc2ccccc21` (racemic), for which the Activity result in data set [1], in data set [2], in data set [3] and in data set [4] was “Non-toxic” in each case. For the same molecule, in data set [5], the selectivity ratio is over 10.

`Cl.O=C(/C=C/c1ccccc1)c1ccccc1O`: the Activity entry in data set [1], in data set [2], in data set [3] and in data set [4] was “Non-toxic” in each case. Moreover, the selectivity ratio in data set [5] is over 10.

With `Cl.O=C(CCc1ccc(F)cc1)c1cc(F)ccc1OCC(O)Cn1ccc2ccccc21` (racemic), the Activity entry in data set [1], in data set [2], in data set [3] and in data set [4] was “Non-toxic” in each case. In data set [5], the selectivity ratio was over 10.

For the molecule `CC(C)N(CC(O)COc1ccc(F)cc1C(=O)CCc1ccc(F)cc1)c1ccccc1.Cl` (racemic), the Activity result in data set [1], in data set [2], in data set [3] and in data set [4] was “Non-toxic” each time. Moreover, the selectivity ratio in data set [5] is over 10.

Consider `CCCCN(CCCC)CC(O)COc1ccccc1C(=O)CCc1ccccc1.Cl` (racemic), for which the Activity result in data set [1], in data set [2], in data set [3] and in data set [4] was “Non-toxic” each time. For the same molecule, the selectivity ratio in data set [5] is over 10.

Turning to `Cl.O=C(CCc1ccccc1)c1ccccc1OCC(O)CN1CCN(c2ccc(C(F)(F)F)cc2)CC1` (racemic), the Activity entry in data set [1], in data set [2], in data set [3] and in data set [4] was “Non-toxic” in each case. Also, the selectivity ratio in data set [5] was over 10.

With `Cl.O=C(CCc1ccc(F)cc1)c1cc(F)ccc1OCC(O)CN1CCC(O)(Cc2ccccc2)CC1` (racemic), the Activity entry in data set [1], in data set [2], in data set [3] and in data set [4] was “Non-toxic” throughout. For the same molecule, the selectivity ratio in data set [5] is over 10.

In the case of `CCCCN(CCCC)CC(O)COc1ccc(F)cc1C(=O)CCc1ccccc1.Cl` (racemic), the Activity entry in data set [1], in data set [2], in data set [3] and in data set [4] was “Non-toxic” each time. Also, the selectivity ratio in data set [5] is over 10.

`Cl.O=C(CCc1ccc(F)cc1)c1ccccc1OCC(O)CN(Cc1ccccc1)c1ccccc1` (racemic): the Activity result in data set [1], in data set [2], in data set [3] and in data set [4] was “Non-toxic” each time. Besides, the selectivity ratio in data set [5] was over 10.

Consider `Cl.O=C(CCc1ccccc1)c1cc(F)ccc1OCC(O)CN1CCN(Cc2ccccc2)CC1` (racemic), for which the Activity entry in data set [1], in data set [2], in data set [3] and in data set [4] was “Non-toxic” throughout. Besides, in data set [5], the selectivity ratio was over 10.

On to `Cl.O=C(CCc1ccccc1)c1ccccc1OCC(O)CN1CCC(O)(Cc2ccccc2)CC1` (racemic), for which the Activity entry in data set [1], in data set [2], in data set [3] and in data set [4] was “Non-toxic” each time. In addition, the selectivity ratio in data set [5] was over 10.

In the case of `Cl.O=C(CCc1ccccc1)c1ccccc1OCC(O)CN(Cc1ccccc1)c1ccccc1` (racemic), the Activity entry in data set [1], in data set [2], in data set [3] and in data set [4] was “Non-toxic” throughout. The selectivity ratio in data set [5] was over 10.

For the molecule `Cl.O=C(CCc1ccccc1)c1cc(F)ccc1OCC1CO1` (racemic), the Activity entry in data set [1], in data set [2], in data set [3] and in data set [4] was “Non-toxic” each time. The selectivity ratio in data set [5] was over 10.

Take `Cl.O=C(CCc1ccc(F)cc1)c1cc(F)ccc1OCC(O)CN1CCN(c2ccccc2)CC1` (racemic): the Activity entry in data set [1], in data set [2], in data set [3] and in data set [4] was “Non-toxic” in each case. Moreover, the selectivity ratio in data set [5] was over 10.

Turning to `Cc1ccccc1N1CCN(CC(O)COc2ccccc2C(=O)CCc2ccccc2)CC1.Cl` (racemic), the Activity result in data set [1], in data set [2], in data set [3] and in data set [4] was “Non-toxic” in each case. For the same molecule, the selectivity ratio in data set [5] was over 10.
